Experimental data published in US20230346952A1, “CANNABINOID GLYCOSIDE PRODRUGS AND METHODS OF SYNTHESIS” (priority 2015, published 2023).

Legend:
Assay in all cases: biochemical
[1] = target: safety screen panel of human pharmacological targets (Homo sapiens, UniProt P28223); conditions: read-out: percent inhibition: 5-HT2A (h) (agonist radioligand)
[2] = target: safety screen panel of human pharmacological targets (Homo sapiens, UniProt P08588); conditions: read-out: percent inhibition: beta 1 (h) {agonist radioligand)
[3] = target: T1, safety screen panel of human pharmacological targets (Homo sapiens, UniProt P08908); conditions: read-out: percent inhibition: 5-HT1A(h) {agonist radiogilgand)
T1 sequence (P08908 1-422): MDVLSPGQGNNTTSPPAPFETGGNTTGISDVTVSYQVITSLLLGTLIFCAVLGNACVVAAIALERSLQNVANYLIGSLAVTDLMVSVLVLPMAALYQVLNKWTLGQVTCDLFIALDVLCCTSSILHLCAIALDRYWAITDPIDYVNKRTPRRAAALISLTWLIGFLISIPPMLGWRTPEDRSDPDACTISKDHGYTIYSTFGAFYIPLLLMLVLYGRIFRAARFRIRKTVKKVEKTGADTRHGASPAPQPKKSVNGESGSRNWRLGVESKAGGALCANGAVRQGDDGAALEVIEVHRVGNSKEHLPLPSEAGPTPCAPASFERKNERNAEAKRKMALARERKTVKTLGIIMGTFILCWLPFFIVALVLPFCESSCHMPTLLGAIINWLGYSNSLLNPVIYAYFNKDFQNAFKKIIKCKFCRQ

[4] = target: safety screen panel of human pharmacological targets (Homo sapiens, UniProt Q14432); conditions: read-out: percent inhibition: PDE3A (h)
[5] = target: safety screen panel of human pharmacological targets (Homo sapiens, UniProt P35372); conditions: read-out: percent inhibition: mu (MOP) (h) (agonist radioligand)
[6] = target: safety screen panel of human pharmacological targets (Homo sapiens, UniProt Q01959); conditions: read-out: percent inhibition: dopamine transporter (b) (antagonist radioligand)
[7] = target: safety screen panel of human pharmacological targets (Homo sapiens, UniProt P23975); conditions: read-out: percent inhibition: norepinephrine transporter (h) (antagonist radioligand)
[8] = target: T2, safety screen panel of human pharmacological targets (Homo sapiens, UniProt P46098); conditions: read-out: percent inhibition: 5-HT3 (h) (antagonist radioligand)
T2 sequence (P46098 24-478): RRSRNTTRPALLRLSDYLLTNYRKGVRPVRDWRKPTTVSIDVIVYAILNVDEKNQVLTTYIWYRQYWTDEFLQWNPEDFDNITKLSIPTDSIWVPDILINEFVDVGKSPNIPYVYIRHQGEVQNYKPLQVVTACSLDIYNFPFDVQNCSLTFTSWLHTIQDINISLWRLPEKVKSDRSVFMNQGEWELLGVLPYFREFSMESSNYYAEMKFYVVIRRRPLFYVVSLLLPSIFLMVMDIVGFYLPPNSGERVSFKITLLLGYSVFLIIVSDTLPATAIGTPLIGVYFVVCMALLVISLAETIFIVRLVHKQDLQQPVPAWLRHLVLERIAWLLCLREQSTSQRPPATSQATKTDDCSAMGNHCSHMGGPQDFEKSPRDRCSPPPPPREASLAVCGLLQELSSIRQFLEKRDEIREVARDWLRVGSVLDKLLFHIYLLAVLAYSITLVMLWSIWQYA

[9] = target: T3, safety screen panel of human pharmacological targets (Homo sapiens, UniProt P35354); conditions: read-out: percent inhibition: COX2(h})
T3 sequence (P35354 18-604): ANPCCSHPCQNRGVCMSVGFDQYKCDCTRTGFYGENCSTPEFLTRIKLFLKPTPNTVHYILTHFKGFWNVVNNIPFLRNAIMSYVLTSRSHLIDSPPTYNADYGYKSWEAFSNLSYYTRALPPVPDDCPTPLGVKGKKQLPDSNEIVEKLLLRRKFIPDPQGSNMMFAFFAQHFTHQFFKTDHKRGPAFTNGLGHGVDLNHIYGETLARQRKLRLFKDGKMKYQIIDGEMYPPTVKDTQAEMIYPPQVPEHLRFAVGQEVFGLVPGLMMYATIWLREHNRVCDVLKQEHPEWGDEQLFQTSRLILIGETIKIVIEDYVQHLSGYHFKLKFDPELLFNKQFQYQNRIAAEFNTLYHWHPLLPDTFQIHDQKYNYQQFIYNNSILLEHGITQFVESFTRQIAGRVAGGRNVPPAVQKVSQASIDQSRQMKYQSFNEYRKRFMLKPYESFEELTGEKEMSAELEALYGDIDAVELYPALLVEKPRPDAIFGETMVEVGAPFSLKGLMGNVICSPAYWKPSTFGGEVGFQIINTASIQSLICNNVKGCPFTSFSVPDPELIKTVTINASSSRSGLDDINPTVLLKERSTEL

[10] = target: safety screen panel of human pharmacological targets (Homo sapiens, UniProt P20309); conditions: read-out: percent inhibition: M3 (h) (antagonist radioligand)
[11] = target: safety screen panel of human pharmacological targets (Homo sapiens, UniProt P07550); conditions: read-out: percent inhibition: beta 2 (h) (antagonist radioligand)
[12] = target: safety screen panel of human pharmacological targets (Rattus norvegicus, UniProt P28564); conditions: read-out: percent inhibition: 5-HT1B (antagonist radioligand)
[13] = target: safety screen panel of human pharmacological targets (Homo sapiens, UniProt P23219); conditions: read-out: percent inhibition: COX1(h)
[14] = target: safety screen panel of human pharmacological targets (Homo sapiens, UniProt P22303); conditions: read-out: percent inhibition: acetylcholinesterase (h)
[15] = target: safety screen panel of human pharmacological targets (Homo sapiens, UniProt P25021); conditions: read-out: percent inhibition: H2 (h) (antagonist radioligand)
[16] = target: safety screen panel of human pharmacological targets (Homo sapiens, UniProt P41143); conditions: read-out: percent inhibition: delta (DOP) (h) (agonist radioligand)
safety screen panel of human pharmacological targets (Homo sapiens, UniProt P41143), sequence (P41143 whole entry): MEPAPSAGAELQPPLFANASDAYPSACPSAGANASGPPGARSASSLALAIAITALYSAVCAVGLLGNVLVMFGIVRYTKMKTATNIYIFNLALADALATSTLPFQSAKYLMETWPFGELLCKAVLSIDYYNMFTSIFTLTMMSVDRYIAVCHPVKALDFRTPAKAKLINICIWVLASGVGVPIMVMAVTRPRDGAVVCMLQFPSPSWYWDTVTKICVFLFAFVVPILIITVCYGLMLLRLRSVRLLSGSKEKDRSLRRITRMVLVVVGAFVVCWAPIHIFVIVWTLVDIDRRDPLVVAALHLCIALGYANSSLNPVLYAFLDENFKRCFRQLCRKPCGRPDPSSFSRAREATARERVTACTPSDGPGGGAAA

safety screen panel of human pharmacological targets (Homo sapiens, UniProt P22303), sequence (P22303 32-614): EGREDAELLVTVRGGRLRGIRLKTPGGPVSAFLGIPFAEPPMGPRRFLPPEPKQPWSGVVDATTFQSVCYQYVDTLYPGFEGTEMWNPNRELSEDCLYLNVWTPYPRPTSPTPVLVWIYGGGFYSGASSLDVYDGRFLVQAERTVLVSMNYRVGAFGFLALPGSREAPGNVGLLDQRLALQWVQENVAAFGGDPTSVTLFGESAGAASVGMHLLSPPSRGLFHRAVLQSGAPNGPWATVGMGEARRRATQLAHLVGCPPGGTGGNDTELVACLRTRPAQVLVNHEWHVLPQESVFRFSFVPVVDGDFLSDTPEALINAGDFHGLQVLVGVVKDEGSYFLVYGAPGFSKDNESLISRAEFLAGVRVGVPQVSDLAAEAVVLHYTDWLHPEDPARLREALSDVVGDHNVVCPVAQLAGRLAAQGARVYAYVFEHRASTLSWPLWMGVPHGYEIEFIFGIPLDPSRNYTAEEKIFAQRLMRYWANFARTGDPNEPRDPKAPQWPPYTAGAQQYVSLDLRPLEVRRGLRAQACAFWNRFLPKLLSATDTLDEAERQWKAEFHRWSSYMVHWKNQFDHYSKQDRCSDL
safety screen panel of human pharmacological targets (Homo sapiens, UniProt Q14432), sequence (Q14432 whole entry): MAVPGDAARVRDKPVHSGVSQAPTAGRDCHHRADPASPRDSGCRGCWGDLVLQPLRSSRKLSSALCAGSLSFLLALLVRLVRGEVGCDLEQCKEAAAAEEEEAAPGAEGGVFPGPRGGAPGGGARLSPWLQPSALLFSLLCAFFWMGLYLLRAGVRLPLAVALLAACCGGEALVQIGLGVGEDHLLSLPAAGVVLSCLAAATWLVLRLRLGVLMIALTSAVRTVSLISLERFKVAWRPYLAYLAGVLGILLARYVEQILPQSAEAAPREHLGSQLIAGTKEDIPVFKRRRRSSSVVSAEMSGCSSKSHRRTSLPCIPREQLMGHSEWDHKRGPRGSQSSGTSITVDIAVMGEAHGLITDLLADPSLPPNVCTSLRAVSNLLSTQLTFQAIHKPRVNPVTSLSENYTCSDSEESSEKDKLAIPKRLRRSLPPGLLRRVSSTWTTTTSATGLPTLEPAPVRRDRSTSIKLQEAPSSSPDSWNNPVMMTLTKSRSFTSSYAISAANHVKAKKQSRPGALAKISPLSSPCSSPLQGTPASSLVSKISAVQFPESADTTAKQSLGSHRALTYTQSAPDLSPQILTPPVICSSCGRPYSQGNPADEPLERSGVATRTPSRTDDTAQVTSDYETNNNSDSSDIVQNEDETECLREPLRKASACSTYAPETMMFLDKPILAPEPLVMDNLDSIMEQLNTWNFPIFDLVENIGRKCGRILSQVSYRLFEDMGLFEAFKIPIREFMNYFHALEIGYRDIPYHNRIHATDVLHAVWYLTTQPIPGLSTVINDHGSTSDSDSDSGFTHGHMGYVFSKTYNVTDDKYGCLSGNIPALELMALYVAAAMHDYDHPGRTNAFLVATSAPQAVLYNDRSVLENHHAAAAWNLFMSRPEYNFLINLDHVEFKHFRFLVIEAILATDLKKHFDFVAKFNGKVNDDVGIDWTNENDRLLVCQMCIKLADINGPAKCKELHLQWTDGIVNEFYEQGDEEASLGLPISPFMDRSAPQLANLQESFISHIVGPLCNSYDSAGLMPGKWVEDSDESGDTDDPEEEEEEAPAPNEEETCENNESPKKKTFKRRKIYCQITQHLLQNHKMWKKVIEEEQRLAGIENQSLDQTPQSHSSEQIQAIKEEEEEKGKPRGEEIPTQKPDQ
safety screen panel of human pharmacological targets (Homo sapiens, UniProt P35372), sequence (P35372 whole entry): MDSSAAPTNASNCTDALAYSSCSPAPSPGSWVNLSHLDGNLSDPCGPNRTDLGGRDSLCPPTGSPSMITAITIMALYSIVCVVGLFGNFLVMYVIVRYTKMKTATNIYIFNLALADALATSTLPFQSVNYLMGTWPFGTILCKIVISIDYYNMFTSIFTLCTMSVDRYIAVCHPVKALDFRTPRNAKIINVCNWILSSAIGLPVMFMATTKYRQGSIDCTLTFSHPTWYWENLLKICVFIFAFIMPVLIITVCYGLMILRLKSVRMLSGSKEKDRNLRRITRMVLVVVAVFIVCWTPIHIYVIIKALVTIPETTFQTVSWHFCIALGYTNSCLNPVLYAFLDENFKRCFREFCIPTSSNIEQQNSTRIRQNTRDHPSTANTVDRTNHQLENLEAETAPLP
safety screen panel of human pharmacological targets (Homo sapiens, UniProt P20309), sequence (P20309 whole entry): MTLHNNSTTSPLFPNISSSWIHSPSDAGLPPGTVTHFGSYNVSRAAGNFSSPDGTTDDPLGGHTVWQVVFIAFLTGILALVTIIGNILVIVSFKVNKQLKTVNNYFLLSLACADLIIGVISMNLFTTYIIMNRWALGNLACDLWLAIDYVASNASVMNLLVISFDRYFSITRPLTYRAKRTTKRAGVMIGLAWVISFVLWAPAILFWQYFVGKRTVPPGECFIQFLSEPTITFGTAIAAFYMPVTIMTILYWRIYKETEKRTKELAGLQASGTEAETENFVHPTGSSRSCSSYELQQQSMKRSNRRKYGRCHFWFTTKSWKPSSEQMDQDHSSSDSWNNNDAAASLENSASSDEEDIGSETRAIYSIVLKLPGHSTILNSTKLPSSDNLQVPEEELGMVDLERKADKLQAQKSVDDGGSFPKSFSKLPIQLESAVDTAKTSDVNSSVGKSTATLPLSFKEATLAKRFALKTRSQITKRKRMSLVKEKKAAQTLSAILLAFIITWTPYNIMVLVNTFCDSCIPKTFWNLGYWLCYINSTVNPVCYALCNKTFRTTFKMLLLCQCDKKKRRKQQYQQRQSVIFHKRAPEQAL
safety screen panel of human pharmacological targets (Homo sapiens, UniProt P08588), sequence (P08588 whole entry): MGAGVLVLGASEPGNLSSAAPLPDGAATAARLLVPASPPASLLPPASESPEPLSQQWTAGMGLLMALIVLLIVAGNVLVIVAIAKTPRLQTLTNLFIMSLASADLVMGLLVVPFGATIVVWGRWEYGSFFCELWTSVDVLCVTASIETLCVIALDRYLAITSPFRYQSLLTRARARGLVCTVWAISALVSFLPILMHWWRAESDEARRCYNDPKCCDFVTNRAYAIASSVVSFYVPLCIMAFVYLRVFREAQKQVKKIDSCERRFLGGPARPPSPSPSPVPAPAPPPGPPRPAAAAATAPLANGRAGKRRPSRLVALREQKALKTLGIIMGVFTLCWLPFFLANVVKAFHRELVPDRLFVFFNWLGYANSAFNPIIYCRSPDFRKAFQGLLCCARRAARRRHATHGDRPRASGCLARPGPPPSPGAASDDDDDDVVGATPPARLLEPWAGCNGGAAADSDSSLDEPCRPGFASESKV
safety screen panel of human pharmacological targets (Homo sapiens, UniProt P23975), sequence (P23975 whole entry): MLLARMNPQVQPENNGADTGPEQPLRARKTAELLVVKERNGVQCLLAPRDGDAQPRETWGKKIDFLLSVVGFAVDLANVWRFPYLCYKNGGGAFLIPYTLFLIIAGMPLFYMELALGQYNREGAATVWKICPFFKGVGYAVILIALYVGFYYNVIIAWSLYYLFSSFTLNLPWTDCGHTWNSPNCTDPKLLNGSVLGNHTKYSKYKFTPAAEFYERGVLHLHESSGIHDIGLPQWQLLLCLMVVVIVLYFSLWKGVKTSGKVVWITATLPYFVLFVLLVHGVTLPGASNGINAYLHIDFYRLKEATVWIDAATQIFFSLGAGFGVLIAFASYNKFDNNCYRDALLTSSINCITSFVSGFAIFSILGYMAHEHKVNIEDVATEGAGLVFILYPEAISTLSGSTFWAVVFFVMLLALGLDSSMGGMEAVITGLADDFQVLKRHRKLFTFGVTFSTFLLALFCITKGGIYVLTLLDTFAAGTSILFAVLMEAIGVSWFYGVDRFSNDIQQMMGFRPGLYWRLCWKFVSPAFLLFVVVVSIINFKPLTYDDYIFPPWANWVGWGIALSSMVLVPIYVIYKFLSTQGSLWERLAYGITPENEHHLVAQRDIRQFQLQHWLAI
safety screen panel of human pharmacological targets (Homo sapiens, UniProt P25021), sequence (P25021 whole entry): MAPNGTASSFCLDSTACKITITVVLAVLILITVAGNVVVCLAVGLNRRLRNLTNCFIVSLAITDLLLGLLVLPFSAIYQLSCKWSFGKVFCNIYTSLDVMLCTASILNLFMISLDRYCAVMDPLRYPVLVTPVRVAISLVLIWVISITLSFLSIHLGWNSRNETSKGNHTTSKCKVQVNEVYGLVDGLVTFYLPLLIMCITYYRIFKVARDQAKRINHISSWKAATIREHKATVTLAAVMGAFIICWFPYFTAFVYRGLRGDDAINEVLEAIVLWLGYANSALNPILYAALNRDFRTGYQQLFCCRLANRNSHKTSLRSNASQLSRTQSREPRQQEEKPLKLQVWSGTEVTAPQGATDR
safety screen panel of human pharmacological targets (Homo sapiens, UniProt P07550), sequence (P07550 whole entry): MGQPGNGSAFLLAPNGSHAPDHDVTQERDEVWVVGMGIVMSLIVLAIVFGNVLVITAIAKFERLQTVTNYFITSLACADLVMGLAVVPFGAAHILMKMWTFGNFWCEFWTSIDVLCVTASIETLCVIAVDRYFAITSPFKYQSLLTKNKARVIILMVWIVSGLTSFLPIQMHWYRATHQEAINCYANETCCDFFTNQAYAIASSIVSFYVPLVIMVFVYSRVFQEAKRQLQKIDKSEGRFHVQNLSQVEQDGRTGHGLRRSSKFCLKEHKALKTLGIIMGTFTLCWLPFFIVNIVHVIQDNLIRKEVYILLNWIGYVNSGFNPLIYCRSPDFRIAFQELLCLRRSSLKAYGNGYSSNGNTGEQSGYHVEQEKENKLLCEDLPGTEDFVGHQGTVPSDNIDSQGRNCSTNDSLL

| Structure (SMILES) | inhibition at 10 µM [1] [%] | inhibition at 10 µM [2] [%] | inhibition at 10 µM [3] [%] | inhibition at 10 µM [4] [%] | inhibition at 10 µM [5] [%] | inhibition at 10 µM [6] [%] | inhibition at 10 µM [7] [%] | inhibition at 10 µM [8] [%] | inhibition at 10 µM [9] [%] | inhibition at 10 µM [10] [%] | inhibition at 10 µM [11] [%] | inhibition at 10 µM [12] [%] | inhibition at 10 µM [13] [%] | inhibition at 10 µM [14] [%] | inhibition at 10 µM [15] [%] | inhibition at 10 µM [16] [%] |
| --- | --- | --- | --- | --- | --- | --- | --- | --- | --- | --- | --- | --- | --- | --- | --- | --- |
| CCCCCc1cc(O)c2c(c1)OC(C)(C)[C@@H]1CCC(C)=C[C@@H]21 [VB301, Δ9-Terahydrocannabinol, reference compound] | 92 | 1 | -27 | -4 | 89 | 101 | 90 | -21 | -6 | 23 | -12 | 26 | 9 | 30 | -6 | 43 |
| CCCCCc1cc(O[C@@H]2O[C@H](CO)[C@@H](O)[C@H](O)[C@H]2O)c2c(c1)OC(C)(C)[C@@H]1CCC(C)=C[C@@H]21 [VB302, Δ9THC-1-O-glucopyranoside] | 11 | 7 | 6 | -44 | -5 | 18 | 16 | -4 | -20 | 11 | 2 | -1 | 30 | -1 | -11 | 5 |
| CCCCCc1cc(O[C@@H]2O[C@H](CO[C@@H]3O[C@H](CO)[C@@H](O)[C@H](O)[C@H]3O)[C@@H](O[C@@H]3O[C@H](CO)[C@@H](O)[C@H](O)[C@H]3O)[C@H](O)[C@H]2O)c2c(c1)OC(C)(C)[C@@H]1CCC(C)=C[C@@H]21 [VB311] | 4 | 0 | -6 | -6 | 5 | 28 | 20 | -13 | 8 | -5 | -1 | -7 | 11 | 1 | -10 | 0 |
